Data from patent US20260130395A1, “Water Dispersible Botanical Compositions” (Aquila Black Limited, priority 2021, published 2026).

Assay: Stability of cannabinoid compounds and Vitamin E components in Beverage 1 (AB White) by LCMSMS
Format: physicochemical

## Cc1c(C)c2c(c(C)c1O)CC[C@@](C)(CCC[C@H](C)CCC[C@H](C)CCCC(C)C)O2 [α-Tocopherol]
Stored at 8° C., 29 days
  Stability of Vitamin Es in AB White: 24.87 µg/mL
Stored at 8° C., 30 days
  Stability of Vitamin Es in AB White: 23.64 µg/mL
Stored at 8° C., 60 days
  Stability of Vitamin Es in AB White: 22.96 µg/mL
Stored at 8° C., 90 days
  Stability of Vitamin Es in AB White: 24.27 µg/mL
Stored at 8° C., 120 days
  Stability of Vitamin Es in AB White: 23.01 µg/mL
Stored at 8° C., 150 days
  Stability of Vitamin Es in AB White: 24.32 µg/mL
Stored at 8° C., 180 days
  Stability of Vitamin Es in AB White: 24.54 µg/mL
Stored at 8° C., 210 days
  Stability of Vitamin Es in AB White: 23.71 µg/mL
Stored at 8° C., 240 days
  Stability of Vitamin Es in AB White: 22.68 µg/mL
Stored at 8° C., 270 days
  Stability of Vitamin Es in AB White: 22.68 µg/mL
Stored at 8° C., 300 days
  Stability of Vitamin Es in AB White: 22.76 µg/mL
Stored at 8° C., 330 days
  Stability of Vitamin Es in AB White: 23.21 µg/mL
Stored at 8° C., 360 days
  Stability of Vitamin Es in AB White: 22.25 µg/mL
Stored at 8° C., 390 days
  Stability of Vitamin Es in AB White: 22.45 µg/mL
Stored at 8° C., 420 days
  Stability of Vitamin Es in AB White: 22.35 µg/mL
Stored at 8° C., 450 days
  Stability of Vitamin Es in AB White: 22.88 µg/mL
Stored at 8° C., 480 days
  Stability of Vitamin Es in AB White: 22.05 µg/mL
Stored at 8° C., 510 days
  Stability of Vitamin Es in AB White: 21.32 µg/mL
Stored at 8° C., 540 days
  Stability of Vitamin Es in AB White: 21.72 µg/mL
Stored at 8° C., 570 days
  Stability of Vitamin Es in AB White: 22.00 µg/mL
Stored at 21-25° C., 0 days
  Stability of Vitamin Es in AB White: 26.1 µg/mL
Stored at 21-25° C., 1 days
  Stability of Vitamin Es in AB White: 25.1 µg/mL
Stored at 21-25° C., 2 days
  Stability of Vitamin Es in AB White: 25.5 µg/mL
Stored at 21-25° C., 3 days
  Stability of Vitamin Es in AB White: 25.8 µg/mL
Stored at 21-25° C., 5 days
  Stability of Vitamin Es in AB White: 25.4 µg/mL
Stored at 21-25° C., 8 days
  Stability of Vitamin Es in AB White: 23.9 µg/mL
Stored at 21-25° C., 9 days
  Stability of Vitamin Es in AB White: 25.3 µg/mL
Stored at 21-25° C., 10 days
  Stability of Vitamin Es in AB White: 26.3 µg/mL
Stored at 21-25° C., 11 days
  Stability of Vitamin Es in AB White: 26.0 µg/mL
Stored at 21-25° C., 12 days
  Stability of Vitamin Es in AB White: 24.6 µg/mL
Stored at 21-25° C., 15 days
  Stability of Vitamin Es in AB White: 23.9 µg/mL
Stored at 21-25° C., 16 days
  Stability of Vitamin Es in AB White: 24.2 µg/mL
Stored at 21-25° C., 17 days
  Stability of Vitamin Es in AB White: 26.2 µg/mL
Stored at 21-25° C., 18 days
  Stability of Vitamin Es in AB White: 25.3 µg/mL
Stored at 21-25° C., 19 days
  Stability of Vitamin Es in AB White: 23.8 µg/mL
Stored at 21-25° C., 22 days
  Stability of Vitamin Es in AB White: 25.7 µg/mL
Stored at 21-25° C., 23 days
  Stability of Vitamin Es in AB White: 23.8 µg/mL
Stored at 21-25° C., 24 days
  Stability of Vitamin Es in AB White: 25.8 µg/mL
Stored at 21-25° C., 25 days
  Stability of Vitamin Es in AB White: 25.0 µg/mL
Stored at 21-25° C., 26 days
  Stability of Vitamin Es in AB White: 24.8 µg/mL
Stored at 21-25° C., 29 days
  Stability of Vitamin Es in AB White: 26.1 µg/mL
Stored at 21-25° C., 30 days
  Stability of Vitamin Es in AB White: 23.9 µg/mL
Stored at 21-25° C., 60 days
  Stability of Vitamin Es in AB White: 25.0 µg/mL
Stored at 21-25° C., 90 days
  Stability of Vitamin Es in AB White: 23.7 µg/mL
Stored at 21-25° C., 120 days
  Stability of Vitamin Es in AB White: 24.7 µg/mL
Stored at 21-25° C., 150 days
  Stability of Vitamin Es in AB White: 24.4 µg/mL
Stored at 21-25° C., 180 days
  Stability of Vitamin Es in AB White: 23.6 µg/mL
Stored at 21-25° C., 210 days
  Stability of Vitamin Es in AB White: 23.1 µg/mL
Stored at 21-25° C., 240 days
  Stability of Vitamin Es in AB White: 24.2 µg/mL
Stored at 21-25° C., 270 days
  Stability of Vitamin Es in AB White: 23.1 µg/mL
Stored at 21-25° C., 300 days
  Stability of Vitamin Es in AB White: 24.2 µg/mL
Stored at 21-25° C., 330 days
  Stability of Vitamin Es in AB White: 24.4 µg/mL
Stored at 21-25° C., 360 days
  Stability of Vitamin Es in AB White: 23.6 µg/mL
Stored at 21-25° C., 390 days
  Stability of Vitamin Es in AB White: 23.1 µg/mL
Stored at 21-25° C., 420 days
  Stability of Vitamin Es in AB White: 22.8 µg/mL
Stored at 21-25° C., 450 days
  Stability of Vitamin Es in AB White: 23.4 µg/mL
Stored at 21-25° C., 480 days
  Stability of Vitamin Es in AB White: 21.6 µg/mL
Stored at 21-25° C., 510 days
  Stability of Vitamin Es in AB White: 21.9 µg/mL
Stored at 21-25° C., 540 days
  Stability of Vitamin Es in AB White: 22.0 µg/mL
Stored at 21-25° C., 570 days
  Stability of Vitamin Es in AB White: 22.2 µg/mL
